Compound: CC(C)(C)c1nc(-c2cccc(NS(=O)(=O)c3c(F)cccc3F)c2F)c(-c2ccnc(N)n2)s1 [Dabrafenib] + O=C(c1cc(Cc2n[nH]c(=O)c3ccccc23)ccc1F)N1CCN(C(=O)C2CC2)CC1 [Olaparib] (partner 8 µM)
Experiment: relative viability (nuclei count vs DMSO), 5 days (fraction); higher = more cells survive
Conditions: first compound 0.3 µM
How it was run: (§1)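 One day after seeding in 1536-well plates, lung cancer cell lines were dosed by pin tool. Dosing was either single-drug or a fixed anchor-drug dose plus five library-drug doses (not always all listed) in √10 steps. After 5 days, nuclei were stained in one fix-and-stain step and counted on 4× images, and relative viability is the nuclei count of treated wells over that of vehicle wells, given as the median of duplicate plates.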

| Cell Line | relative viability |
| --- | --- |
| PC-3 [JPC-3] | 1.24 |
| NCI-H2347 | 0.599 |
| LXF-289 | 1.07 |
| NCI-H358 | 0.406 |
| LC-2-ad | 0.698 |
| 201T | 0.841 |
| NCI-H1666 | 0.799 |
| NCI-H322M | 0.736 |
| HARA | 1.12 |
| NCI-H1395 | 0.495 |

Compound: NC(=O)c1ccc(N(C(N)=O)c2c(F)cccc2F)nc1-c1ccc(F)cc1F [VX-702] + Nc1ncn([C@H]2C[C@H](O)[C@@H](CO)O2)c(=O)n1 [Decitabine] (partner 2 µM)
Experiment: as above
Conditions: first compound 0.02 µM
How it was run: as §1

| Cell Line | relative viability |
| --- | --- |
| NCI-H1792 | 0.555 |
| HCC-15 | 0.656 |
| LU99A | 0.93 |
| EKVX | 0.425 |
| NCI-H1437 | 0.618 |
| RERF-LC-KJ | 0.762 |
| NCI-H1734 | 0.493 |
| BEN | 0.724 |
| NCI-H460 | 0.522 |
| H3255 | 0.541 |
| NCI-H1793 | 0.545 |
| NCI-H23 | 0.322 |
| NCI-H838 | 0.455 |
| EPLC-272H | 0.353 |
| NCI-H3122 | 0.435 |
| NCI-H1915 | 0.275 |
| NCI-H727 | 0.827 |

| Cell Line | relative viability |
| --- | --- |
| NCI-H1975 | 0.367 |
| LK-2 | 0.26 |
| HCC-366 | 0.331 |
| NCI-H2087 | 0.288 |
| LCLC-97TM1 | 0.241 |
| NCI-H2405 | 0.727 |
| NCI-H1993 | 0.529 |
| PC-3 [JPC-3] | 0.804 |
| NCI-H2347 | 0.643 |
| LXF-289 | 0.313 |
| NCI-H358 | 0.204 |
| LC-2-ad | 0.849 |
| 201T | 0.86 |
| NCI-H1666 | 0.655 |
| NCI-H322M | 0.67 |
| HARA | 0.567 |
| NCI-H1395 | 0.664 |

Same assay, conditions: first compound 0.2 µM

| Cell Line | relative viability |
| --- | --- |
| NCI-H1792 | 0.614 |
| HCC-15 | 0.586 |
| LU99A | 0.869 |
| EKVX | 0.29 |
| NCI-H1437 | 0.516 |
| RERF-LC-KJ | 0.759 |
| NCI-H1734 | 0.484 |
| BEN | 0.646 |
| NCI-H460 | 0.494 |
| NCI-H23 | 0.35 |
| NCI-H838 | 0.471 |
| EPLC-272H | 0.373 |
| NCI-H3122 | 0.371 |
| NCI-H1915 | 0.284 |
| NCI-H727 | 0.914 |
| NCI-H1975 | 0.35 |

| Cell Line | relative viability |
| --- | --- |
| LK-2 | 0.329 |
| HCC-366 | 0.305 |
| NCI-H2087 | 0.242 |
| LCLC-97TM1 | 0.232 |
| NCI-H2405 | 0.709 |
| NCI-H1993 | 0.603 |
| PC-3 [JPC-3] | 0.888 |
| NCI-H2347 | 0.606 |
| LXF-289 | 0.403 |
| NCI-H358 | 0.333 |
| LC-2-ad | 0.807 |
| 201T | 0.838 |
| NCI-H1666 | 0.691 |
| NCI-H322M | 0.668 |
| NCI-H1395 | 0.714 |

Same assay, conditions: first compound 0.6325 µM

| Cell Line | relative viability |
| --- | --- |
| NCI-H1792 | 0.491 |
| HCC-15 | 0.627 |
| LU99A | 0.93 |
| EKVX | 0.303 |
| NCI-H1437 | 0.544 |
| RERF-LC-KJ | 0.66 |
| NCI-H1734 | 0.477 |
| BEN | 0.694 |
| NCI-H460 | 0.599 |
| H3255 | 0.671 |
| NCI-H1793 | 0.449 |
| NCI-H23 | 0.321 |
| NCI-H838 | 0.429 |
| EPLC-272H | 0.374 |
| NCI-H3122 | 0.417 |
| NCI-H1915 | 0.258 |
| NCI-H727 | 0.753 |

| Cell Line | relative viability |
| --- | --- |
| NCI-H1975 | 0.344 |
| LK-2 | 0.218 |
| HCC-366 | 0.353 |
| NCI-H2087 | 0.254 |
| LCLC-97TM1 | 0.232 |
| NCI-H2405 | 0.709 |
| NCI-H1993 | 0.54 |
| PC-3 [JPC-3] | 0.888 |
| NCI-H2347 | 0.683 |
| LXF-289 | 0.381 |
| NCI-H358 | 0.244 |
| LC-2-ad | 0.821 |
| 201T | 0.871 |
| NCI-H1666 | 0.751 |
| NCI-H322M | 0.765 |
| HARA | 0.512 |
| NCI-H1395 | 0.728 |

Same assay, conditions: first compound 2 µM

| Cell Line | relative viability |
| --- | --- |
| NCI-H1792 | 0.532 |
| HCC-15 | 0.647 |
| LU99A | 0.872 |
| EKVX | 0.276 |
| NCI-H1437 | 0.607 |
| RERF-LC-KJ | 0.685 |
| NCI-H1734 | 0.47 |
| BEN | 0.776 |
| NCI-H460 | 0.469 |
| H3255 | 0.625 |
| NCI-H1793 | 0.458 |
| NCI-H23 | 0.317 |
| NCI-H838 | 0.534 |
| EPLC-272H | 0.403 |
| NCI-H3122 | 0.435 |
| NCI-H1915 | 0.268 |
| NCI-H727 | 0.822 |
| NCI-H1975 | 0.362 |
| LK-2 | 0.318 |
| HCC-366 | 0.266 |
| NCI-H2087 | 0.294 |
| LCLC-97TM1 | 0.228 |
| NCI-H2405 | 0.759 |
| NCI-H1993 | 0.578 |
| PC-3 [JPC-3] | 0.853 |
| NCI-H2347 | 0.639 |
| LXF-289 | 0.357 |
| NCI-H358 | 0.223 |
| LC-2-ad | 0.776 |
